Reference: patent US20240374673A1, “PHARMACEUTICAL COMPOSITION FOR PREVENTING OR TREATING INFLAMMATORY SKIN DISEASE” (3BIGS CO., LTD., priority 2021, published 2024)
Residues, ends and D or L forms follow the SMILES beside them.

Experiment: Body weight in chronic contact dermatitis mouse model
Format: in vivo
Settings: DNCB mice
Description: The 6-week-old male […] mouse used in the animal experiment is a species of ‘SKH-1 hairless’ and barely has body hair to ensure convenience in intuitively observing the skin condition, of which was divided, for experiment, into 3 groups out of 18 individuals in total (6 individuals for a negative control group/6 individuals for a positive control group/6 individuals for a novel peptide treated group).
After an adaptation period of about 2 weeks, 100 μL of 2,4-dinitrochlorobenzene (DNCB) prepared at a concentration of 1% in solution of acetone: olive oil (3:1) was applied onto the dorsal skin of mice at a certain time every day. After 1 week, if the incidence of contact dermatitis was observed, the DNCB was lowered to 0.5% and applied by 100 μL every 2 days, and the novel peptide was prepared in normal saline at a concentration of 1 mg/ml and applied by 100 μg daily for 3 weeks, while skin condition was observed every week during the experiment.

**Q.** With `C[C@@H](O)[C@H](NC(=O)[C@@H](N)CCCCN)C(=O)N[C@@H](Cc1ccccc1)C(=O)N[C@@H](CCCNC(=N)N)C(=O)O` [novel peptide, KTFR] (H-KTFR-OH) as the compound, how does the “changes in the body weight” value (100 μg applied daily for 3 weeks) read?
**A.** The value was “no significant changes in the body weight”.

**Q.** And the “stress induced by the peptide” value (concluded from body weight)?
**A.** Its value is “no stress was induced”.
